Where “and” joins values, the source holds several entries; their conditions need not be identical. Equal entries are not always repeated. ± gives the uncertainty stated by the source.
Assays:
Conditions in all cases: 18 h
HEK293T-Rex XBP1-RLuc [1] = experiment: EC50 for XBP1-RLuc reporter activation
Description: (§1)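 Dose-response of hit compounds in HEK293T-Rex cells stably expressing ERSE-FLuc or XBP1-RLuc reporters, 18 hr treatment, 1536-well; luminescence normalised to 500 nM thapsigargin (100%) and DMSO (0%), fitted to give EC50 (M) and maximal activation; '>' marks EC50 above the top tested dose (~17 µM).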

HEK293T-Rex ERSE-FLuc [2] = experiment: EC50 for ERSE-FLuc reporter activation
Description: as §1

HEK293T-Rex ERSE-FLuc [3] = experiment: maximal ERSE-FLuc activation from dose-response fit, relative to thapsigargin (% of thapsigargin); higher = stronger activation
Description: as §1

HEK293T-Rex XBP1-RLuc [4] = experiment: maximal XBP1-RLuc activation from dose-response fit, relative to thapsigargin (% of thapsigargin); higher = stronger activation
Description: as §1

SMILES | EC50 for XBP1-RLuc reporter activation (HEK293T-Rex XBP1-RLuc [1]) [µM] | EC50 for ERSE-FLuc reporter activation (HEK293T-Rex ERSE-FLuc [2]) | maximal ERSE-FLuc activation (HEK293T-Rex ERSE-FLuc [3]) | maximal XBP1-RLuc activation (HEK293T-Rex XBP1-RLuc [4])
O=C(N/N=C/c1ccc2c(c1)OCO2)c1cccc(F)c1 | > 16.9 | > 16.9 µM | 20.8 ± 5.2 | 5.7 ± 0.65
O=C(N/N=C\c1ccccc1[N+](=O)[O-])c1[nH]nc2c1CCc1ccccc1-2 | > 16.9 | > 16.9 µM | 23 ± 4.3 | 5.31 ± 2.3
COc1ccc(-c2csc(-c3ccc(O)cc3)n2)cc1 | > 19.1 | > 19.1 µM | 30.9 ± 6.5 | 33.9 ± 1.9
O=C(N/N=C/c1cccc2ccccc12)c1ccc2c(c1)OCO2 | > 16.9 | > 16.9 µM | 25.3 ± 5.6 | 0.725 ± 0.6
CC(=O)N1CCc2c([nH]c3ccccc23)C12CCN(CCCOc1ccccc1)CC2 | 2.11 | 2.94 µM | 151 ± 7.6 | 176 ± 21
O=C(Nc1ccccc1O)c1ccc(C(=O)c2ccccc2)cc1 | > 16.8 | 7.47 µM | 103 ± 3.3 | 15.1 ± 5.4
CCc1nc2sc(C(=O)c3ccccc3)c(N)c2cc1C | > 16.3 | > 16.3 µM | 25.4 ± 6.3 | 4.69 ± 3.2
C=CCNC(=O)c1cc(-c2cccs2)on1 | > 16.9 | 5.28 µM | 124 ± 2.7 | 12.8 ± 0.79
NC(=O)c1c(NC(=O)COc2ccccc2)sc2c1CCC2 | > 13.2 | > 13.2 µM | 16.2 ± 1.4 | 2.55 ± 0.7
Cc1cc2nc(-c3ccc(SCC#N)nc3)[nH]c2cc1C | > 16.9 | > 16.9 µM | 20.4 ± 3.8 | 8.52 ± 0.53
Nc1nc(Nc2ccc(Cl)cc2)nc2ccccc12 | 8.74 | 9.57 µM | 103 ± 24 | 56.4 ± 4.6
COc1cccc(/C=N/NC(=O)c2ccc(NC(=O)c3ccc(C)cc3)cc2)c1O | > 16.9 | > 16.9 µM | 6.5 ± 1.7 | 1.01 ± 1.2
Cc1ccc(/C=N/NC(=O)c2cccc(F)c2)cc1 | > 16.9 | > 16.9 µM | 23.1 ± 1.4 | 1.93 ± 2
OCCNc1nc(Nc2ccc(Br)cc2)nc2ccccc12 | 7.94 | 4.93 µM | 132 ± 7.4 | 57 ± 8.1
Oc1ccc(/C=N/Nc2cccc(Cl)n2)c(O)c1 | > 16.9 | > 16.9 µM | 24.4 ± 4.8 | 33.6 ± 1.8
CN(C)c1ccc(/C=C/C(=O)NC(=O)c2ccccc2OC(=O)c2ccccc2)cc1 | > 12.9 | > 12.9 µM | 25 ± 1.2 | 11.5 ± 1.4
COc1ccc(/C=C(\C#N)c2nc3ccccc3n2C)cc1 | > 16.9 | > 16.9 µM | 32.1 ± 2 | 0.49 ± 1.4
N#CC1=C(N)Oc2c(ccc3ccccc23)C1c1ccsc1 (stereo unspecified) | > 18.3 | > 18.3 µM | 21.2 ± 5.6 | 5.3 ± 5
Cc1ccc(/C=C(\C#N)C(=O)Nc2cccc(Cl)c2)o1 | > 16.9 | > 16.9 µM | 14.7 ± 3.1 | 3.54 ± 1.9
O=c1cc(-c2ccc(O)c(O)c2)oc2cc(O)cc(O)c12 | > 16.9 | 14.1 µM and 7.57 µM | 80.9 and 67.8 | 36.6 and 29

SMILES | EC50 for XBP1-RLuc reporter activation (HEK293T-Rex XBP1-RLuc [1]) [µM] | EC50 for ERSE-FLuc reporter activation (HEK293T-Rex ERSE-FLuc [2]) | maximal ERSE-FLuc activation (HEK293T-Rex ERSE-FLuc [3]) | maximal XBP1-RLuc activation (HEK293T-Rex XBP1-RLuc [4])
Cc1ccc(O)c(NC(=O)c2cc(C(C)C)on2)c1 | > 16.9 | > 16.9 µM | 39.9 ± 7.2 | 14.4 ± 1.7
O=C1N/C(=C\c2ccc(O)cc2)C(O)=C1C=NCc1ccccc1 | 2.96 | > 16.9 µM | 40.4 ± 7.5 | 74.2 ± 4.9
O=C(N/N=C/c1ccc(O)c(O)c1)c1ccc(Br)cc1 | 16.8 | 16 µM | 51.2 ± 4.4 | 50.1 ± 4.6
Nc1ccc2nc(/C=C/c3ccco3)[nH]c2c1 | > 16.9 | > 16.9 µM | 27.4 ± 2.5 | 32.3 ± 1.3
Cc1cc(C)c2nc3sc(C(=O)N4CCCCC4)c(N)c3cc2c1 | > 16.9 | > 16.9 µM | 34 ± 5.5 | 13.4 ± 1.4
CCCCNNC(=O)c1ccc(Br)cc1 | > 17.4 | 4.91 µM | 95.4 ± 25 | 8.05 ± 3.5
O=[N+]([O-])c1ccc(/C=C/c2ccc(O)cc2)cc1 | 12.4 | > 15.3 µM | 25.8 ± 4.6 | 53.3 ± 4.7
COc1ccc(/C=C/c2ccc3cccc(OC(C)=O)c3n2)cc1OC(C)=O | > 16.9 | > 16.9 µM | 25.7 ± 5.6 | 15 ± 2.1
Cn1c(-c2cccc(Cl)c2)cnc1NC(=O)c1ccccc1 | > 16.9 | > 16.9 µM | 23.6 ± 2.5 | 8.33 ± 5.9
CCCNC(=O)c1ccc2nc(-c3ccc4[nH]ccc4c3)sc2c1 | > 17.4 | > 17.4 µM | 13.9 ± 6.1 | 2.49 ± 1.2
Cc1ccc(O)c(NC(=O)CSc2n[nH]c(C)c2[N+](=O)[O-])c1 | > 16.9 | 5.79 µM | 98.8 ± 16 | 37.4 ± 7.3
O=C(Nc1ccc2c(c1)OCCO2)C(=O)Nc1ccccc1Cl | > 16.9 | > 16.9 µM | 16.5 ± 0.52 | 2.68 ± 2.8
Oc1cccc(/C=N/Nc2ccc(Cl)nn2)c1O | > 17.9 | > 17.9 µM | 41.7 ± 1.8 | 19.4 ± 1
CCOc1ccc(/C=C(\C#N)c2[nH]nc(N)c2C#N)cc1OCC | > 16.9 | 10 µM | 59.8 ± 6.2 | 15.1 ± 1.6
CNC(=O)c1ccccc1Nc1cc(NC(=O)Cc2ccc(F)c(F)c2)ncc1C(F)(F)F | > 16.9 | > 16.9 µM | 3.28 ± 7.2 | 2.4 ± 1.1
O=C(N/N=C/c1cccc(O)c1O)c1ccccn1 | > 18.4 | > 18.4 µM | 25.7 ± 1.9 | 20.3 ± 1.1
CC(=O)Oc1ccc2cc(NC(=O)c3ccc(C)cc3)c(=O)oc2c1 | > 15.1 | > 15.1 µM | 25.8 ± 1.6 | 14.6 ± 0.94
CCCNc1ccnc(N2CCc3ccccc3C2)n1 | > 17.7 | > 17.7 µM | 12 ± 7.5 | 1.68 ± 0.28
CCCNC(=O)c1cc(-c2cccs2)on1 | > 16.9 | 7.59 µM | 92.7 ± 11 | 9.95 ± 1.4

Reference: the supplement of paper PMC4954754
